As a reminder, the IC50 is the concentration needed to halve the response being measured. High values mean weaker potency in that assay, low ones greater potency in that assay. The inhibition is the relative decrease from the control value, in per cent. Lower therefore signals little suppression.

In test [1] the target is Inosine-5'-monophosphate dehydrogenase 2 (Homo sapiens, UniProt P12268). Put plainly: In vitro inhibitory concentration against inosine-5'-monophosphate dehydrogenase.
The nature of test [2]: In vitro concentration required to inhibit peripheral blood mononuclear cell proliferation was determined. The class given is functional.
Test [3] can be described thus: In vitro concentration required to inhibit peripheral blood mononuclear cell proliferation; Inactive. The class given is functional.
A short description of test [4]: Percent inhibition of inosine-5'-monophosphate dehydrogenase was determined at 1 uM concentration. In kind it is functional.

For the compound `COc1cc2[nH]c(=O)n(CCN3CCOCC3)c(=O)c2cc1-c1cnco1`, the IC50 was 0.297 µM in test [1] and 9.13 µM in test [2].
For the compound `COc1cc2[nH]c(=O)n(C)c(=O)c2cc1-c1cnco1`, the IC50 in test [1] came out at 0.104 µM; in test [2], 4 µM.
Taken in the same sequence, the figures for `COc1cc2[nH]c(=S)n(CCc3ccccn3)c(=O)c2cc1-c1cnco1` were 0.091 µM and 1 µM.
Taken in the same sequence, the figures for `COc1cc2[nH]c(=S)n(CCN3CCOCC3)c(=O)c2cc1-c1cnco1` were 0.071 µM and 2.76 µM.
For `COc1cc2[nH]c(=O)n(CCc3ccncc3)c(=O)c2cc1-c1cnco1`, in that order: 0.188 µM and 1.2 µM.
In the case of `COc1cc2[nH]c(=O)n(CCc3c[nH]cn3)c(=O)c2cc1-c1cnco1`, the IC50 entry in test [3] is “Not Active”; in test [1], 0.047 µM.
Regarding `COc1cc2[nH]c(=S)n(CC(C)(C)C)c(=O)c2cc1-c1cnco1`, the midpoint of inhibition in test [1], the IC50, lay at 0.821 µM.
In the case of `COc1cc2[nH]c(=S)n(Cc3ccncc3)c(=O)c2cc1-c1cnco1`, the IC50 in test [1] was determined as 0.1 µM; in test [2] it was 4.1 µM.
`COc1cc2nc(S)nc(O)c2cc1-c1cnco1` gave a concentration for half-maximal inhibition (IC50) in test [1] of 0.03 µM.
`COc1cc2[nH]c(=S)n(-c3cccnc3)c(=O)c2cc1-c1cnco1`: in test [1], the IC50 was found to be 1.71 µM.
For the compound `COc1cc2[nH]c(=S)n(C)c(=O)c2cc1-c1cnco1`, the figures for the IC50 in test [1] and in test [2] were 0.017 µM and 1.1 µM, respectively.
Compound `COc1cc2[nH]c(=S)n(C(C)C)c(=O)c2cc1-c1cnco1` returned an inhibition in test [4] of 27%.
`COc1cc2[nH]c(=S)n(CCc3ccncc3)c(=O)c2cc1-c1cnco1`: the results for the IC50 in test [1] and in test [2] were 0.013 µM and 0.78 µM, respectively.
Consider `COc1cc2[nH]c(=O)n(CCn3ccnc3)c(=O)c2cc1-c1cnco1`, for which the half-maximal inhibitory concentration (IC50) is 0.086 µM in test [1] and 2.4 µM in test [2].
Taken in the same sequence, the figures for `COc1cc2[nH]c(=S)n(CCCn3ccnc3)c(=O)c2cc1-c1cnco1` were 0.022 µM and 0.98 µM.
